The text below walks through data of patent US20260167620A1, “MULTIFUNCTIONAL COMPOUND CAPABLE OF DEGRADING BTK KINASE, AND COMPOSITION AND USE” (HANGZHOU HEALZEN THERAPEUTICS CO., LTD., priority 2021, published 2026).

SMILES strings stand for the structures.

The test system of one data set is Mino cells. Briefly: Inhibitory activity on Mino cell proliferation (MTS). In kind it is cell-based. The conditions noted are these: Homo sapiens, 72 h or 168 h. Here is the method: (§1) The anti-tumor efficacy of the compounds was tested by measuring their inhibitory effects on OCI-LY10 and Mino cell proliferation. OCI-LY10 and Mino cells were cultured in RPM-1640 medium containing […] fetal calf serum. OCI-LY10 and Mino cells were digested, inoculated in a 96-well plate at a cell concentration of 10000 cells/well, and incubated overnight at 37° C., 5% CO2. Compounds of different concentrations (1000 nM, 4-fold dilution, 8 points) were added to the 96-well plate and incubated for 72 h or 168 h at 37° C. and […], and then 20 μL of MTS was added to each well. After incubation for 2 h, 25 μl of 10% SDS was added to each well to terminate the reaction. The absorbance at 490 nm and 650 nm were measured with a microplate reader. IC50 was calculated using GraphPad Prism 5.0.

Another data set concerns the target T1, BTK (Homo sapiens, UniProt Q06187).
T1 construct: endogenous in cells; host or cells: Mino cells
Briefly: BTK degradation activity test in Mino cells (Westernblot or Elisa). It counts as cell-based. Conditions: 24-72 h incubation. As to the method: The Mino cell line cells are 0.5˜1 million/well in 6-well plates. The compounds are diluted to different concentrations, added to the plate, and after 24-72 h of incubation, the cells are collected. After the cells were lysed, the total protein concentration in each well was determined with a BCA kit. The amount of BTK is determined using the Westernblot or Elisa method.

The nature of data set [1]: Liver microsomal metabolic stability, human. The conditions noted are these: human liver microsomes, NADPH, 37° C. In kind it is in vitro ADME. Here is the method: (§2) Under the condition of ice bath, 1 mg of human or Mouse liver microparticles was add to PBS (1 mL) buffer, then NADPH (20 μL) was added, and incubated at 37° C. for 5 min. 10 μL of the compound to be tested was added, then suck several times with a pipette and divide into 3 aliquots of 330 μL; each and then samples were taken at 0, 15, 30, 60 and 120 min respectively. 10 μL of the solution was taken with a pipette each time and added to 490 μL of the solution containing the internal standard compound. The resulting solution was vortexed and then placed on ice, and then sampling at another time point continues. All samples were centrifuged at 10,000 rpm for 10 min, and the supernatant was taken for LC/MS testing. The metabolism of the compound in liver microsomes was calculated based on the peak area.
On the technique in general: Liver microsomes are a subcellular fraction often used to study metabolism.

The nature of a further data set: Mouse absorption test. It counts as in vivo. The conditions noted are these: mice, intragastric 10 mg/kg, plasma. As to the method:
Experimental method: mice were used as experimental animals, and drugs were administered intragastrically at 10 mg/kg (5% DMSO+5% Solutol+90% saline). The blood collection time points for intragastric administration were 0.25, 0.5, 1, 2, 4, 6, 8, and 24 h. 0.3 ml of whole blood was taken, and 0.1 ml of plasma was taken after centrifugation and analyzed by LC-MS.

A short description of data set [2]: Liver microsomal metabolic stability, mouse. Conditions: mouse liver microsomes, NADPH, 37° C. In kind it is in vitro ADME. Here is the method: as §2
The test system of the next data set is OCI-LY10 cells. Briefly: Inhibitory activity on OCI-LY10 cell proliferation (MTS). In kind it is cell-based. The conditions noted are these: Homo sapiens, 72 h or 168 h. Here is the method: as §1
The nature of a further data set: Rat absorption test. It counts as in vivo. The conditions noted are these: SD rats, intragastric 10 mg/kg, plasma. Here is the method:
SD Rats were used as experimental animals, and drugs were administered intragastrically at 10 mg/kg (5% DMSO+5% Solutol+90% normal saline). The blood collection time points for intragastric administration were 0.25, 0.5, 1, 2, 4, 6, 8, and 24 h. 0.3 ml of whole blood was taken, and 0.1 ml of plasma was taken after centrifugation and analyzed by LC-MS.

T1 sequence (Q06187 whole entry): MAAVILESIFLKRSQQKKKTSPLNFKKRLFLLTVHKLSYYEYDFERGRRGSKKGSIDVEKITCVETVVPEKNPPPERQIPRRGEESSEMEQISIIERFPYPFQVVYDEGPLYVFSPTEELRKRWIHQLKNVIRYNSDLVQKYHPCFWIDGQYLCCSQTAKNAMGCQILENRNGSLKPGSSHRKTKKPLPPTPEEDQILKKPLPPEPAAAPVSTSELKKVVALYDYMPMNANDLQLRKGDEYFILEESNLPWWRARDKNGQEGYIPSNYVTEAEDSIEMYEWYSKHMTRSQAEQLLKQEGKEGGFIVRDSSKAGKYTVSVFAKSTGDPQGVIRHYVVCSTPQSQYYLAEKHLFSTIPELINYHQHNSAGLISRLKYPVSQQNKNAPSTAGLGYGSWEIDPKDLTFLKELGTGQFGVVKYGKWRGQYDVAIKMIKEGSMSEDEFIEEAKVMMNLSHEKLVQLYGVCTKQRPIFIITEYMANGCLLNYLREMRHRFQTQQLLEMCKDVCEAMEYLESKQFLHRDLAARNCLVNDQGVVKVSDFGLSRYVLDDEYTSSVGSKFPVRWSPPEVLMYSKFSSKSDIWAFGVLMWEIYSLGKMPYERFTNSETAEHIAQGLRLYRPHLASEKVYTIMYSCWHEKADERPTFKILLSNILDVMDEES

Take `NC(=O)c1nnc(N2CCCCC2)nc1Nc1ccc(C2CCN(CC3CCN(c4ccc5c(c4)C(=O)N(C4CCC(=O)NC4=O)C5=O)C3)CC2)cc1` (centres unmarked) [Compound 001, 5-((4-(1-((1-(2-(2,6-dioxopiperidin-3-yl)-1,3-dioxoisoindolin-5-yl)pyrrolidin-3-yl)methyl)piperidin-4-yl)phenyl)amino)-3-(piperidin-1-yl)-1,2,4-triazine-6-carboxamide]: the figures for the IC50 in the data set on Mino cells and in the data set with OCI-LY10 cells were 5.5 nM and 3 nM, respectively. Moreover, the DC50 on BTK was < 10 nM. Moreover, the “Thalf (min) Human” value in data set [1] turned out to be 71.37 min. Besides, the DNAUC in “Mouse absorption test” was 2300 AUC (h*ng/mL)/dose (mg/kg). Moreover, the “Thalf (min) Mouse” value in data set [2] is 47.13 min.
Regarding `NC(=O)c1nnc(N2CCCCC2)nc1Nc1ccc(C2CCN(CC3CCN(c4ccc5c(c4)C(=O)N(C4CCC(=O)NC4=O)C5=O)C3)CC2)c(F)c1` (centres unmarked) [Compound 002, 5-((4-(1-((1-(2-(2,6-dioxopiperidin-3-yl)-1,3-dioxoisoindolin-5-yl)pyrrolidin-3-yl)methyl)piperidin-4-yl)-3-fluorophenyl)amino)-3-(piperidin-1-yl)-1,2,4-triazine-6-carboxamide], the DNAUC is 252 AUC (h*ng/mL)/dose (mg/kg) in “Rat absorption test” and 2223 AUC (h*ng/mL)/dose (mg/kg) in “Mouse absorption test”. Besides, the DC50 on BTK is < 10 nM. In addition, the “Thalf (min) Human” value in data set [1] was determined as 120 min. Also, in data set [2], the “Thalf (min) Mouse” value is 54 min.
In the case of `NC(=O)c1nnc(N2CCCCC2)nc1Nc1ccc(N2CCN(CC3CCN(c4ccc5c(c4)C(=O)N(C4CCC(=O)NC4=O)C5=O)C3)CC2)c(F)c1` (centres unmarked) [Compound 003, 5-((4-(4-((1-(2-(2,6-dioxopiperidin-3-yl)-1,3-dioxoisoindolin-5-yl)pyrrolidin-3-yl)methyl)piperazin-1-yl)-3-fluorophenyl)amino)-3-(piperidin-1-yl)-1,2,4-triazine-6-carboxamide], the DNAUC in “Rat absorption test” is on record as 456 AUC (h*ng/mL)/dose (mg/kg); in “Mouse absorption test”, 1648 AUC (h*ng/mL)/dose (mg/kg). Besides, the 50% degradation concentration (DC50) on BTK was < 10 nM.
`NC(=O)c1nnc(N2CCCCC2)nc1Nc1ccc(C2CCN(CC3CCN(c4ccc5c(c4)C(=O)N(C4CCC(=O)NC4=O)C5=O)CC3)CC2)c(F)c1` (centres unmarked) [Compound 007, 5-((4-(1-((1-(2-(2,6-dioxopiperidin-3-yl)-1,3-dioxoisoindolin-5-yl)piperidin-4-yl)methyl)piperidin-4-yl)-3-fluorophenyl)amino)-3-(piperidin-1-yl)-1,2,4-triazine-6-carboxamide] gave an IC50 in the data set with Mino cells of 5.31 nM. Besides, the DC50 on BTK is < 10 nM. Besides, the DNAUC in the data set “Mouse absorption test” is on record as 1955 AUC (h*ng/mL)/dose (mg/kg).
The matching figures for `NC(=O)c1nnc(N2CCCCC2)nc1Nc1ccc(N2CCC(CN3CCN(c4ccc5c(c4)C(=O)N(C4CCC(=O)NC4=O)C5=O)CC3)CC2)c(F)c1` (centres unmarked) [Compound 044, 5-((4-(4-((4-(2-(2,6-dioxopiperidin-3-yl)-1,3-dioxoisoindolin-5-yl)piperazin-1-yl)methyl)piperidin-1-yl)-3-fluorophenyl)amino)-3-(piperidin-1-yl)-1,2,4-triazine-6-carboxamide]: 3.46 nM, < 10 nM and 1941 AUC (h*ng/mL)/dose (mg/kg).
`NC(=O)c1nnc(N2CCCCC2)nc1Nc1ccc(N2CCC(CN3CCN(c4cc5c(cc4F)C(=O)N(C4CCC(=O)NC4=O)C5=O)CC3)CC2)cc1` (centres unmarked) [Compound 046, 5-((4-(4-((4-(2-(2,6-dioxopiperidin-3-yl)-6-fluoro-1,3-dioxoisoindolin-5-yl)piperazin-1-yl)methyl)piperidin-1-yl)phenyl)amino)-3-(piperidin-1-yl)-1,2,4-triazine-6-carboxamide]: the DC50 on BTK is < 10 nM. The DNAUC in “Mouse absorption test” is given as 1867 AUC (h*ng/mL)/dose (mg/kg).
Turning to `Cc1cc(N2CCC(CN3CCN(c4ccc(Nc5nc(N6CCCCC6)nnc5C(N)=O)cc4F)CC3)CC2)ccc1N1CCC(=O)NC1=O` [Compound 075, 5-((4-(4-((1-(4-(2,4-dioxotetrahydropyrimidin-1(2H)-yl)-3-methylphenyl)piperidin-4-yl)methyl)piperazin-1-yl)-3-fluorophenyl)amino)-3-(piperidin-1-yl)-1,2,4-triazine-6-carboxamide], in the data set “Rat absorption test”, the DNAUC is recorded as 1125 AUC (h*ng/mL)/dose (mg/kg). Moreover, the values for the IC50 with Mino cells and with OCI-LY10 cells were 1.42 nM and 0.51 nM, respectively. Further, the DC50 on BTK was < 10 nM.
In the case of `NC(=O)c1nnc(N2CCCCC2)nc1Nc1ccc(N2CCN(CC3CCN(c4ccc(NC5CCC(=O)NC5=O)nc4)CC3)CC2)c(F)c1` (centres unmarked) [Compound 077, 5-((4-(4-((1-(6-((2,6-dioxopiperidin-3-yl)amino)pyridin-3-yl)piperidin-4-yl)methyl)piperazin-1-yl)-3-fluorophenyl)amino)-3-(piperidin-1-yl)-1,2,4-triazine-6-carboxamide], the DNAUC in the data set “Rat absorption test” is listed as 285 AUC (h*ng/mL)/dose (mg/kg). Moreover, on BTK, the DC50 is < 10 nM. Also, the “Thalf (min) Human” value in data set [1] is 57 min. Moreover, in data set [2], the “Thalf (min) Mouse” value is reported as 79 min. In the data set with OCI-LY10 cells, this molecule showed an IC50 of 1.59 nM.
As to `NC(=O)c1nnc(N2CCCCC2)nc1Nc1ccc(N2CCN(CC3CCN(c4ccc(C(=O)NC5CCC(=O)NC5=O)nc4)C3)CC2)c(F)c1` (centres unmarked) [Compound 079, 5-((4-(4-((1-(6-((2,6-dioxopiperidin-3-yl)carbamoyl)pyridin-3-yl)pyrrolidin-3-yl)methyl)piperazin-1-yl)-3-fluorophenyl)amino)-3-(piperidin-1-yl)-1,2,4-triazine-6-carboxamide], the DNAUC in “Rat absorption test” is given as 6611 AUC (h*ng/mL)/dose (mg/kg). Moreover, the DC50 on BTK was < 10 nM. In the data set with OCI-LY10 cells, this molecule gave an IC50 of 1.15 nM.
Regarding `NC(=O)c1nnc(N2CCCCC2)nc1Nc1ccc(N2CCN(CC3CCN(c4ncc(-c5ccc(=O)[nH]n5)cc4C(F)(F)F)CC3)CC2)c(F)c1` [Compound 081, 5-((3-fluoro-4-(4-((1-(5-(6-oxo-1,6-dihydropyridazin-3-yl)-3-(trifluoromethyl)pyridin-2-yl)piperidin-4-yl)methyl)piperazin-1-yl)phenyl)amino)-3-(piperidin-1-yl)-1,2,4-triazine-6-carboxamide], the DNAUC in the data set “Rat absorption test” is reported as 372 AUC (h*ng/mL)/dose (mg/kg). In addition, the DC50 at BTK is < 10 nM.
In the case of `NC(=O)c1nnc(N2CCCCC2)nc1Nc1ccc(N2CCN(CC3CCN(c4ccc(C(=O)NC5CCC(=O)NC5=O)nc4)CC3)CC2)c(F)c1` (centres unmarked) [Compound 085, 5-((4-(4-((1-(6-((2,6-dioxopiperidin-3-yl)carbamoyl)pyridin-3-yl)piperidin-4-yl)methyl)piperazin-1-yl)-3-fluorophenyl)amino)-3-(piperidin-1-yl)-1,2,4-triazine-6-carboxamide], the DNAUC in the data set “Rat absorption test” is reported as 579 AUC (h*ng/mL)/dose (mg/kg). The DC50 at BTK was < 10 nM. 0.57 nM corresponded to half-maximal inhibition in the data set on OCI-LY10 cells (IC50).
For `CC(=O)N[C@@H]1CCCN(c2nnc(C(N)=O)c(Nc3ccc(N4CCN(CC5CCN(c6ccc(C(=O)NC7CCC(=O)NC7=O)nc6)CC5)CC4)c(F)c3)n2)C1` (stereo partly drawn) [Compound 092, 3-((R)-3-acetamidopiperidin-1-yl)-5-((4-(4-((1-(6-((2,6-dioxopiperidin-3-yl)carbamoyl)pyridin-3-yl)piperidin-4-yl)methyl)piperazin-1-yl)-3-fluorophenyl)amino)-1,2,4-triazine-6-carboxamide], the IC50 in the data set on Mino cells was found to be 3.28 nM; in the data set with OCI-LY10 cells, 0.24 nM. Further, the DC50 on BTK is < 10 nM. Moreover, in data set [1], the “Thalf (min) Human” value worked out at 41 min. In addition, the “Thalf (min) Mouse” value in data set [2] turned out to be 90 min.

As usually defined, the IC50 is the concentration that gives 50% inhibition. For orientation: DC50 means the concentration at which degradation of the target reaches its halfway point. Lower therefore signals degradation at low concentration.
